# A melting point compilation (Tetko et al.; mined from patent text by program, amines drawn as free bases though some values may be those of a salt)
row,Compound,melting point
1,CC(C)(C)OC(=O)C1CCN(C(=O)C2CN(c3ccc(-c4noc(=O)[nH]4)cc3)C(=O)O2)CC1 (centres undefined),171 to 175 °C
2,CNCCCOc1cc(F)c(-c2c(Cl)nc(-c3cnccn3)nc2N[C@@H](C)C(F)(F)F)c(F)c1,48 to 50 °C
3,O=[N+]([O-])c1cc(Br)cc(O)c1O,102 to 105 °C
4,C=C(COC(=O)CCCCCCBr)COC(=O)NCCCCCCCCCCCCCCCCCC,49 °C
5,Nc1c(Br)cc(C2=NNC(=O)Cc3cc4c(cc32)OCO4)cc1Br,162 to 165 °C
6,Nc1c([N+](=O)[O-])sc2cc(Cl)ccc12,243 to 245 °C
7,COC(=O)[C@@H](CC(C)C)NC(=O)c1ccc2c(c1)OCO2,89 to 90 °C
8,CNc1ccc(Cl)cc1-c1nnc(C(F)(F)F)n1CC(=O)N1CCOCC1,152 to 153 °C
9,COCSCCNC(=C[N+](=O)[O-])SC,54 to 58 °C
10,Cc1nc(C)c(CC#N)cc1CC#N,65 to 67 °C
11,CCCOc1cc2sc(C(=O)O)cc2cc1OCC,192 to 194 °C
12,CCCCCCn1c(C)c(C(=O)N(CCCC)CCCC)c2c(CN3CCCCC3)c(O)c(C(=O)CC)cc21,124 to 125 °C
13,O=C1NCCN1c1ccncc1,204 to 207 °C
14,NS(=O)(=O)c1ccc(-n2nc(C(F)(F)F)c(Cl)c2-c2ccc(-c3cncs3)c(Cl)c2)cn1,191 to 193 °C
15,CC(=O)Oc1cc([N+](=O)[O-])ccc1CBr,76.5 to 78 °C
16,N#Cc1nn(-c2c(Cl)cc(C(F)(F)F)cc2Cl)c(N)c1OC(F)F,152 to 154 °C
17,N#Cc1ccc2[nH]c(O)c(-c3ccc(CN4CCOCC4)cn3)c2c1,228 to 230 °C
18,CCC(=O)c1ccc(C(O)C(C)(C)C)cc1 (centres undefined),88 to 91 °C

# Other lines, results leading:
row,melting point,Compound
1,232 to 233 °C,O=C1Nc2ccccc2N2CCc3cc(Cl)cc1c32
2,183 to 184 °C,CCOC(=O)C(=O)Nc1cc([N+](=O)[O-])c2ccccc2c1NC(=O)C(=O)OCC
3,225 to 227 °C,CS(=O)(=O)Nc1cc2occ([N+](=O)[O-])c(=O)c2cc1Oc1ccccc1
4,117 to 119 °C,CCc1c(-c2ccccc2)nc(C(C)C)c(C#CI)c1-c1ccc(F)cc1
5,153 to 155 °C,CN(C)C(=O)c1cccn1N1C(=O)c2ccccc2C1=O
6,138 °C,CN(C)C=CC(=O)c1ccc(OCc2ccccc2)cc1
7,174 to 176 °C,CC(=O)c1ccc(Nc2c3ccccc3nc3occ(Cl)c23)cc1
8,151 °C,CC(C)n1c(=O)n(C(=O)NCC2CCN(CC3(C(=O)O)CCCCC3)CC2)c2ccccc21
9,250 to 260 °C,CS(=O)(=O)c1ccc(-c2cnn(-c3ccc(Cl)cc3F)c(=O)c2-c2ccc(F)cc2)cc1
10,176 to 178 °C,COc1cccc2c1Sc1ccc(C(C)C(=O)O)cc1C(=O)C2 (centres undefined)
11,120 to 124 °C,CCCC(O)c1cnc2nc(C)c(OCC)cc2c1Nc1ccc(OC)cc1 (centres undefined)
12,199 to 203 °C,O=C(CCSCCC(=O)Nc1ccc(Nc2ccccc2)cc1)Nc1ccc(Nc2ccccc2)cc1
13,120 to 121 °C,CCOC(=O)C(C)Cc1cccc(-c2nc(=O)c3ccccc3s2)n1 (centres undefined)
14,132 °C,COc1ccc(C2=NC[C@@H](OC(=O)Nc3ccccc3)[C@H](c3ccccc3)O2)cc1 (racemic)
15,222 to 224 °C,CN1C(=O)Cn2cc(C(=O)NCc3ccc(F)cc3)c(=O)c3cc(CN4CCOCC4)cc1c32
16,85 to 88 °C,CC(=O)SCC(Cc1ccccc1)C(=O)Nc1cccc(C(=O)OCCBr)c1 (centres undefined)
17,140 to 141 °C,CCOC(=O)c1nc(-c2ccccc2F)c(-c2ccc(=O)n(C(C)C)n2)s1
18,154 to 155 °C,CCc1cccc2c3c([nH]c12)C(CC)(CC(C)=O)OCC3 (centres undefined)
19,165 to 166 °C,CC(=NOCCOc1ccc(CC2SC(=O)NC2=O)cc1)c1ccc(-c2ccc(C(F)(F)F)cc2)cc1 (centres undefined)
20,154 to 157 °C,c1ccc(Nc2ccc(Cc3ccc(Nc4ccccc4)c4ccccc34)c3ccccc23)cc1
21,130 to 131 °C,CSc1ccc(C2OC(=O)NC2CO)cc1 (centres undefined)
